Measurements published in PubChem BioAssay (NCI).
Values joined by “and” are separate entries in the source; they are usually repeats but may differ in a detail not shown here. Equal entries are not always repeated.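 Protocol summary: plate cells (96-well), add compound at 5 concentrations, incubate 48 h, interpolate endpoints linearly. GI50: concentration for 50% inhibition of growth. TGI marks complete inhibition of growth.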

Columns and labels:
Test in all cases: inhibition of tumour cell growth, NCI panel, 48 h
HT29 colon = system: HT29 colon
T-47D breast = system: T-47D breast
HOP-62 NSCLC = system: HOP-62 NSCLC
SNB-75 CNS = system: SNB-75 CNS
EKVX NSCLC = system: EKVX NSCLC
TK-10 renal = system: TK-10 renal
CCRF-CEM leukemia = system: CCRF-CEM leukemia
HCT-116 colon = system: HCT-116 colon

SMILES	GI50 (HT29 colon)	TGI (HT29 colon)	GI50 (T-47D breast)	TGI (T-47D breast)	GI50 (HOP-62 NSCLC)	TGI (HOP-62 NSCLC)	GI50 (SNB-75 CNS)	TGI (SNB-75 CNS)	GI50 (EKVX NSCLC)	TGI (EKVX NSCLC)	GI50 (TK-10 renal)	TGI (TK-10 renal)	GI50 (CCRF-CEM leukemia)	TGI (CCRF-CEM leukemia)	GI50 (HCT-116 colon)	TGI (HCT-116 colon)
N#Cc1cc(-c2ccccc2)[nH]c1-c1nccc2ccccc12	30.5 µM	> 100 µM	3.06 µM	45.2 µM	29 µM	> 100 µM	13.7 µM	> 100 µM	5.86 µM	> 100 µM	25.3 µM	> 100 µM	14 µM	> 100 µM	9.13 µM	> 100 µM
Oc1ccc(Cl)cc1Cc1cc(Cl)cc(Cc2cc(Cl)ccc2O)c1O		10.4 µM		7.56 µM		10.9 µM		10.3 µM		7.19 µM		9.17 µM		15.3 µM		9.33 µM
CN(C)c1cc2c(Nc3ccc4nc(Cc5ccccc5)[nH]c4c3)ncnc2cn1	11.9 µM	> 23 µM	> 16.4 µM	> 25 µM	> 15.6 µM	> 25 µM	> 13.9 µM	> 25 µM	8.68 µM	> 25 µM	4.9 µM	> 25 µM	> 18.7 µM	> 25 µM	13.1 µM	> 25 µM
Nc1nn(C(=O)Nc2ccc(Cc3ccccc3)cc2)c2ccc(Cl)cc12	3.54 µM	27.3 µM	0.0957 µM	28.8 µM	1.33 µM	14.8 µM	15 µM	35.2 µM	5.85 µM	98.8 µM	17.7 µM	50.3 µM	3.08 µM	> 58.7 µM	0.354 µM	24.2 µM
O=C(O[C@H]1CN[C@H](C#Cc2cc3ncnc(Nc4ccc(Cc5ccccc5)cc4)c3s2)C1)N1CCOCC1	4.71 µM	10.7 µM	1.86 µM	> 25 µM	5.15 µM	> 14.1 µM	1.87 µM	> 19.4 µM	1.94 µM	> 25 µM	0.548 µM	4.97 µM	6.98 µM	> 25 µM	4.03 µM	8.16 µM
COC(=O)C1=C2C3=C(C(=O)c4ccccc4C3=O)N(Cc3ccccc3)C2(OC(C)=O)C=CC1=O (centres undefined)	37 µM	> 100 µM	66.4 µM	> 100 µM	2.94 µM	13.7 µM	40.3 µM	> 100 µM	23.6 µM	79.9 µM		33.8 µM	0.378 µM	> 100 µM	6.25 µM	24.8 µM
Nc1ccccc1C#Cc1ccccc1C#Cc1ccccc1N	5.98 µM	> 100 µM	17.1 µM	38.4 µM	11 µM	26.7 µM	23.7 µM	70.3 µM	8.03 µM	32.8 µM	4.17 µM	20 µM	3.21 µM	16.2 µM	6.32 µM	21.5 µM
CCN1CCN(CCNc2nccc(-c3c(-c4cccc(O)c4)nc4sccn34)n2)S1(=O)=O	4.53 µM and 2.2 µM	32.5 µM and 31.7 µM	22.1 µM and 11 µM	32.5 µM and 53 µM	> 32.5 µM and 26.4 µM	> 100 µM	12.6 µM and 6.84 µM	32.5 µM and > 100 µM	> 32.5 µM and 34.6 µM	> 100 µM	19.4 µM and 9.68 µM	32.5 µM and > 100 µM	8.83 µM and 5.52 µM	32.5 µM and 46.1 µM	9.72 µM and 3.63 µM	32.5 µM and 55.3 µM
CCOC(=O)CC(=O)N(c1ccc(OC)cc1)C(C(=O)OC)c1ccccc1 (centres undefined)		> 100 µM		> 100 µM		> 100 µM		> 100 µM		> 100 µM		> 100 µM		> 100 µM		> 100 µM
O=C1OCC2=C1C(c1cccc([N+](=O)[O-])c1)c1cc3c(cc1N2CCO)CCC3 (centres undefined)	0.176 µM	21.6 µM	0.355 µM	> 50 µM	0.199 µM	> 50 µM	0.0513 µM	0.363 µM	0.28 µM	> 50 µM	6.42 µM	> 50 µM	0.216 µM	> 50 µM	0.148 µM	16 µM
C[C@@]12CCC[C@@](C)(C(=O)O)C1CC[C@]13C=C(CO)[C@](O)(CCC12)C3 (some centres undefined)	> 100 µM	> 100 µM	> 100 µM	> 100 µM	> 100 µM	> 100 µM	> 100 µM	> 100 µM	> 100 µM	> 100 µM	> 100 µM	> 100 µM	65.9 µM	> 100 µM	> 100 µM	> 100 µM
O=C(/C=C/c1ccccc1Cl)c1ccc(O)cc1	4.72 µM	17.4 µM	6.38 µM	25.9 µM	20.4 µM	37.3 µM	10.6 µM	24.5 µM	10 µM	25.8 µM	18.1 µM	32.4 µM	6.18 µM	35 µM	2.98 µM	10.8 µM
COc1c(Nc2ncc(Cl)c(N[C@@H]3[C@H]4C=CC(C4)[C@@H]3C(N)=O)n2)ccc2c1CC[C@@H](N1CCOCC1)CC2	2.68 µM	10.6 µM	7.78 µM	25.5 µM	2.08 µM	15 µM	1.59 µM	5.89 µM	1.3 µM	10.2 µM	1.7 µM	15.9 µM	5.25 µM	39.2 µM	2.52 µM	10.3 µM
COc1ccc(S(=O)(=O)Nc2cc(/C=C\c3cc(OC)c(OC)c(OC)c3)cc(OC)c2OC)cc1OC	0.485 µM	> 100 µM	27.2 µM	> 100 µM	17.6 µM	> 100 µM	0.404 µM	> 100 µM	3.6 µM	> 100 µM	10.3 µM	> 100 µM	0.349 µM	> 100 µM	0.469 µM	> 100 µM
O=S(=O)(c1ccc2c(c1)C(=NO)c1cc(S(=O)(=O)N3CCCCC3)ccc1-2)N1CCCCC1	0.856 µM and 0.194 µM	> 1 µM and 0.4 µM	0.186 µM and 0.18 µM	0.423 µM and 0.384 µM	0.168 µM and 0.0463 µM	0.36 µM and 0.105 µM	0.147 µM and 0.0587 µM	0.287 µM and 0.151 µM	0.575 µM and 0.174 µM	> 1 µM and 0.323 µM	0.669 µM and 0.177 µM	> 1 µM and 0.319 µM	0.0727 µM	0.338 µM	0.2 µM and 0.153 µM	0.434 µM and 0.333 µM
CCS(=O)(=O)c1ccc(OC)c(Nc2ncc(-c3cccc(-c4ccccc4F)c3)o2)c1	15 µM	> 25 µM	6.45 µM	> 25 µM	> 19.9 µM	> 25 µM	4.77 µM	24.3 µM	7.89 µM	> 25 µM	7.32 µM	> 25 µM	> 25 µM	> 25 µM	> 22.9 µM	> 25 µM
COc1cccc(C2=NN(C(C)=O)C(c3cc(OC)c(OC)c(OC)c3)C2)c1 (centres undefined)	3.1 µM	> 100 µM	4.49 µM	> 100 µM	0.827 µM		1.73 µM	> 100 µM	4.96 µM	> 100 µM	25.8 µM	> 100 µM	0.921 µM	5.61 µM	2.59 µM	> 100 µM
NC(=O)c1cccc(N)c1	> 100 µM	> 100 µM	> 100 µM	> 100 µM	> 100 µM	> 100 µM	74.6 µM	> 100 µM	> 100 µM	> 100 µM	> 100 µM	> 100 µM	> 100 µM	> 100 µM	> 100 µM	> 100 µM
COc1cc2c3c(n(CCCN=[N+]=[N-])c(=O)c2cc1OC)-c1ccc(N)cc1C3=O	0.133 µM	0.929 µM	0.0988 µM	0.76 µM	0.118 µM	0.666 µM	0.126 µM	0.69 µM	1.09 µM	8.55 µM	0.71 µM	3.93 µM	0.0277 µM	1.1 µM	0.097 µM	0.521 µM
Cc1nc(NC(=O)COc2cccc(/C=C3\COc4ccccc4C3=O)c2)sc1C	1.89 µM	4.14 µM	2.9 µM	10.4 µM	1.71 µM	3.37 µM	5.49 µM	18.7 µM	1.24 µM	3.12 µM	2.31 µM	4.08 µM	3.42 µM	> 100 µM	1.53 µM	3.04 µM
Clc1ccc(-c2nc(-c3c[nH]c4ncccc34)cs2)cc1	> 100 µM	> 100 µM	9.41 µM	> 100 µM	> 100 µM	> 100 µM	> 100 µM	> 100 µM	0.582 µM	> 100 µM	> 100 µM	> 100 µM	> 100 µM	> 100 µM	52.9 µM	> 100 µM
O=C(/C=C\c1cccc([N+](=O)[O-])c1)c1ccccc1	2.77 µM	> 100 µM	2.33 µM	6.1 µM	19.5 µM	46.6 µM	9.82 µM	30.5 µM	13.1 µM	29.1 µM	2.05 µM	5.32 µM	0.568 µM	> 100 µM	1.72 µM	5.07 µM
